Measurements: patent publication US12643886B2 (Ontario Institute for Cancer Research (OICR), priority 2021, dated 2026)

Experiments:
NUAK2 (h) = molecular target: T1, NUAK2 (h) (Homo sapiens, UniProt Q9H093); assay: NUAK2 enzymatic assay (radiometric, Eurofins); format: biochemical; details: full-length recombinant enzyme
T1 construct: This assay was done radiometrically using full-length, recombinant enzyme; purchased Eurofins
T1 sequence (Q9H093 1-628): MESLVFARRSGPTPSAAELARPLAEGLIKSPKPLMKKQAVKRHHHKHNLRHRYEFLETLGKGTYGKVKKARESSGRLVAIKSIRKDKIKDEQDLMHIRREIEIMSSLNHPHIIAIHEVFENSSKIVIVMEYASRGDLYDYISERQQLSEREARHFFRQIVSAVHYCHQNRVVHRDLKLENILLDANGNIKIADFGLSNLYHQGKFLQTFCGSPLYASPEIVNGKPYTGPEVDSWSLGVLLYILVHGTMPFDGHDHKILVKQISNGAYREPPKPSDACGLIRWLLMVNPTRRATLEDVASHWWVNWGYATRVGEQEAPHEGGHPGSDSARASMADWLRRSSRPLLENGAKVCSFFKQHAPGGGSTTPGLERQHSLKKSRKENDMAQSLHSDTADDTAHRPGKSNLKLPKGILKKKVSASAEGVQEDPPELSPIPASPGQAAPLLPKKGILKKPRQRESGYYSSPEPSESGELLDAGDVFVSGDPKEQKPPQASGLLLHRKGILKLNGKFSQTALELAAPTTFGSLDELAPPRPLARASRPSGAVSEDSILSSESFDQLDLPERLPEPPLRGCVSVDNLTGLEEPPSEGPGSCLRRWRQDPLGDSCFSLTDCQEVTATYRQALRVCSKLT
Outline: (§1)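 Full-length recombinant NUAK2 incubated 40 min at room temperature in 8 mM MOPS pH 7.0, 0.2 mM EDTA, 10 mM magnesium acetate, 300 μM peptide substrate and 33P-ATP. Stopped with 0.5% phosphoric acid; filter-bound label counted by scintillation. IC50 reported as ranges; NUAK1 and Aurora A served as counter-screens.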

NUAK1 = molecular target: T2, NUAK1 (Homo sapiens, UniProt O60285); assay: Counter-screen against NUAK1; format: biochemical
T2 sequence (O60285 1-661): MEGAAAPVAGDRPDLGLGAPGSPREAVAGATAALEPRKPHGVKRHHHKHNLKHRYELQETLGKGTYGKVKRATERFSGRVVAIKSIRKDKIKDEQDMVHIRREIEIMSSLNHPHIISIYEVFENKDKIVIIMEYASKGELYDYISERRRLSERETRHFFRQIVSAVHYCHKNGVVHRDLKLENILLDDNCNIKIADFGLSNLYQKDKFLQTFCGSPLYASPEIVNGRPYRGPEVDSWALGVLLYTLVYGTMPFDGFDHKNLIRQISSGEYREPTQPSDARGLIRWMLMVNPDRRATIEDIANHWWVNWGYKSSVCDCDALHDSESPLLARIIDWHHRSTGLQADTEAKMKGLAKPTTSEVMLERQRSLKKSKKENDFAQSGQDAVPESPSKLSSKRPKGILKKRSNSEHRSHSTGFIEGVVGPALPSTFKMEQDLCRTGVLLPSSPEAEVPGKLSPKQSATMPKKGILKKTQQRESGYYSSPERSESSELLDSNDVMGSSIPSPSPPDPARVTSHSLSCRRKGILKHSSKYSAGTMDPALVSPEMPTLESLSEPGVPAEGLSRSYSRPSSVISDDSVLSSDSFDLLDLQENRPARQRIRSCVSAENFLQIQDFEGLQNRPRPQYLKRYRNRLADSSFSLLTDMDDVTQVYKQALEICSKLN
Outline: as §1

Aurora A = molecular target: T3, Aurora A (Homo sapiens, UniProt O14965); assay: Counter-screen against Aurora A; format: biochemical; details: read-out: AUR-A (IC50)
T3 sequence (O14965 1-403): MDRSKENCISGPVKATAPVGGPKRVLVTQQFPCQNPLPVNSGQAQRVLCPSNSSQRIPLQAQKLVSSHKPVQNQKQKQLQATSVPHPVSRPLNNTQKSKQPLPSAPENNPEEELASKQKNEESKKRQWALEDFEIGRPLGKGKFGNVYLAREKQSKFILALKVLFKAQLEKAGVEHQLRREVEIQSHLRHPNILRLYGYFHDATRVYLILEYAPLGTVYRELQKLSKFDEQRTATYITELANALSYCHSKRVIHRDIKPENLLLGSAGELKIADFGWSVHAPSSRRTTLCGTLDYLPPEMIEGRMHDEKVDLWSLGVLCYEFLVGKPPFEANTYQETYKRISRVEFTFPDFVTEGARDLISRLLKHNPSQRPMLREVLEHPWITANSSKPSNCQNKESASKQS
Outline: as §1

MDA-MB-231 cells = assay: Tumor cell growth inhibition assay (ATPlite, 5 days); format: cell-based; details: Homo sapiens, 120 h; breast tumor cell line MDA-MB-231, 5 days
Description: MDA-MB-231 cells were seeded into a 384-well plate at 1,000 cells/well in 50 μl medium (Alpha-MEM containing 10% FBS, […] Normocin, Invivogen and […] Gentamycin, Invitrogen). Plates were then incubated overnight for the cells to attach. An HP D300 digital dispenser was used to dose cells with DMSO or test compounds across a 16-point range of concentrations (high dose of 10 uM to low dose of 5 nM). Plates were incubated in a humidified 5% CO2 incubator at 37° C. After 5 days, plates were removed from the incubator and equilibrated to room temperature. An equal volume of ATPlite assay reagent was then added to each well, and samples processed according to manufacturer's instructions (Perkin Elmer). Luminescent signals were then measured using an Envision plate reader equipped with a US-Luminescence detector.

[1] = test system: several cancer cell lines; details: immunofluorescence; cited from earlier work
[2] = test system: several cancer cell lines; details: PCR; cited from earlier work

Structure (SMILES) | IC50 (NUAK2 (h)) [nM] | IC50 (NUAK1) [nM] | IC50 (Aurora A) [nM] | IC50 (MDA-MB-231 cells) [nM] | YAP/TAZ nuclear localization [1] | YAP/TAZ transcriptional function (target gene expression) [2]
COc1cc2c(cc1Nc1ncc(C(F)(F)F)c(Nc3cccc4c3C(=O)NC4)n1)CCNC2 [Compound I-27] | 11 to 100 | 11 to 100 | > 1000 | 36 |  | 
CCN1CCN(C2CCN(c3ccc(Nc4ncc(C(F)(F)F)c(Nc5cccc6c5C(=O)NC6)n4)c(OC(F)F)c3)CC2)CC1 [Compound I-33, 7-((2-((2-(difluoromethoxy)-4-(4-(4-ethylpiperazin-1-yl)piperidin-1-yl)phenyl)amino)-5-(trifluoromethyl)pyrimidin-4-yl)amino)isoindolin-1-one] | 11 to 100 | 11 to 100 | 101 to 1000 | 38 |  | 
O=C1NCc2cccc(Nc3nc(Nc4ccc(N5C[C@H]6CNC[C@H]6C5)cc4OC(F)F)ncc3C(F)(F)F)c21 [Compound I-56, 7-((2-((2-(difluoromethoxy)-4-((3aR,6aS)-hexahydropyrrolo[3,4-c]pyrrol-2(1H)-yl)phenyl)amino)-5-(trifluoromethyl)pyrimidin-4-yl)amino)isoindolin-1-one] | 11 to 100 | 11 to 100 | 101 to 1000 | 43 |  | 
O=C1NCc2cccc(Nc3nc(Nc4ccc(N5C[C@H]6CC[C@@H](C5)N6)cc4OC(F)F)ncc3C(F)(F)F)c21 [Compound I-59, 7-((2-((4-((1R,5S)-3,8-diazabicyclo[3.2.1]octan-3-yl)-2-(difluoromethoxy)phenyl)amino)-5-(trifluoromethyl)pyrimidin-4-yl)amino)isoindolin-1-one] | 0.1 to 10 | 11 to 100 | 101 to 1000 | 54 |  | 
O=C1NCc2cccc(Nc3nc(Nc4ccc(N5CCC6(CCNCC6)CC5)cc4OC(F)F)ncc3Cl)c21 [Compound I-77, 7-((5-chloro-2-((2-(difluoromethoxy)-4-(3,9-diazaspiro[5.5]undecan-3-yl)phenyl)amino)pyrimidin-4-yl)amino)isoindolin-1-one] | 11 to 100 | 11 to 100 | 101 to 1000 |  |  | 
CCN1CCN(C2CCN(c3ccc(Nc4ncc(Cl)c(Nc5cccc6c5C(=O)NC6)n4)c(OC(F)F)c3)CC2)CC1 [Compound I-80, 7-((5-chloro-2-((2-(difluoromethoxy)-4-(4-(4-ethylpiperazin-1-yl)piperidin-1-yl)phenyl)amino)pyrimidin-4-yl)amino)isoindolin-1-one] | 11 to 100 | 11 to 100 | 101 to 1000 |  |  | 
CC(C)N1CCN(C2CCN(c3ccc(Nc4ncc(Cl)c(Nc5cccc6c5C(=O)NC6)n4)c(OC(F)F)c3)CC2)CC1 [Compound I-81, 7-((5-chloro-2-((2-(difluoromethoxy)-4-(4-(4-isopropylpiperazin-1-yl)piperidin-1-yl)phenyl)amino)pyrimidin-4-yl)amino)isoindolin-1-one] | 11 to 100 | 11 to 100 | 101 to 1000 |  |  | 
CN1CCN(c2ccc(Nc3ncc4cc(C#N)c(=O)n(C5CCCC5)c4n3)cc2)CC1 [ON123300] |  |  |  |  | a block of YAP/TAZ nuclear localization | attenuates transcriptional function
CCC(=O)Nc1cccc(Oc2nc(Nc3ccc(N4CCN(C)CC4)cc3OC)ncc2Cl)c1 [WZ4003] |  |  |  |  | a block of YAP/TAZ nuclear localization | attenuates transcriptional function

The next lines start with results.

IC50 (NUAK2 (h)) [nM] | IC50 (NUAK1) [nM] | IC50 (Aurora A) [nM] | IC50 (MDA-MB-231 cells) [nM] | Structure (SMILES) | YAP/TAZ nuclear localization [1] | YAP/TAZ transcriptional function (target gene expression) [2]
0.1 to 10 | 11 to 100 | > 1000 | 48 | O=C1NCc2cccc(Nc3nc(Nc4ccc(N5C[C@@H]6C[C@H]5CN6)cc4OC(F)F)ncc3C(F)(F)F)c21 [Compound I-54, 7-((2-((4-((1S,4S)-2,5-diazabicyclo[2.2.1]heptan-2-yl)-2-(difluoromethoxy)phenyl)amino)-5-(trifluoromethyl)pyrimidin-4-yl)amino)isoindolin-1-one] |  | 
0.1 to 10 | 11 to 100 | 101 to 1000 | 398 | COc1cc(CN(C)C)ccc1Nc1ncc(Cl)c(Nc2cccc3c2C(=O)NC3)n1 [Compound I-63, 7-((5-chloro-2-((4-((dimethylamino)methyl)-2-methoxyphenyl)amino)pyrimidin-4-yl)amino)isoindolin-1-one] |  | 
0.1 to 10 | 11 to 100 | 101 to 1000 |  | CCN1CCN(c2ccc(Nc3ncc(C(F)(F)F)c(Nc4cccc5c4C(=O)NC5)n3)c(OC(F)F)c2)CC1 [Compound I-78, 7-((2-((2-(difluoromethxoy)-4-(4-ethylpiperazin-1-yl)phenyl)amino)-5-(trifluoromethyl)pyrimidin-4-yl)amino)isoindolin-1-one] |  | 
0.1 to 10 | 11 to 100 | 101 to 1000 |  | CN1CCN(c2ccc(Nc3ncc(C(F)(F)F)c(Nc4cccc5c4C(=O)NC5)n3)c(OC(F)F)c2)CC1 [Compound I-79, 7-((2-((2-(difluoromethxoy)-4-(4-methylpiperazin-1-yl)phenyl)amino)-5-(trifluoromethyl)pyrimidin-4-yl)amino)isoindolin-1-one] |  | 
0.1 to 10 | 11 to 100 | 101 to 1000 |  | CN1C[C@@H]2C[C@H]1CN2c1ccc(Nc2ncc(C(F)(F)F)c(Nc3cccc4c3C(=O)NC4)n2)c(OC(F)F)c1 [Compound I-82, 7-((2-((2-(difluoromethoxy)-4-((1S,4S)-5-methyl-2,5-diazabicyclo[2.2.1]heptan-2-yl)phenyl)amino)-5-(trifluoromethyl)pyrimidin-4-yl)amino)isoindolin-1-one] |  | 
0.1 to 10 | 11 to 100 | > 1000 |  | Cc1cnc(Nc2ccc(N3CCN(C)CC3)cc2OC(F)F)nc1Nc1cccc2c1C(=O)NC2 [Compound I-83, 7-((2-((2-(difluoromethoxy)-4-(4-methylpiperazin-1-yl)phenyl)amino)-5-methylpyrimidin-4-yl)amino)isoindolin-1-one] |  | 
